Test results from ChEMBL document CHEMBL4417623, “Methods and compositions for inhibiting rho/mrtf-mediated diseases and conditions” (2015).
pIC50: −log10 of the molar value. Activity calls are given as the source filed them. No cut-off for these calls is given here.

Legend:
Mus musculus [1] = experiment: Suppression of fibrosis in C57bl/6 mouse model of bleomycin-induced dermal fibrosis at 100 mg/kg, bid dosed via oral gavage; type: functional, organism-based
Mus musculus [2] = species: Mus musculus; experiment: Inhibition of Rho/MRTF/SRF mediated signaling in mouse NIH/3T3 cells assessed as inhibition of fibrosis markers by measuring reduction in LPA-induced ACTA2 mRNA expression by qRT-PCR assay relative to perfenidone; type: cell-based
Homo sapiens = species: Homo sapiens; experiment: Inhibition of Rho/MRTF/SRF mediated signaling in human dermal fibroblasts assessed as suppression of myofibroblast activation by measuring reduction in TGFbeta-induced alpha-SMA expression incubated for 3 days relative to perfenidone
Mus musculus [3] = species: Mus musculus; experiment: Inhibition of Rho/MRTF/SRF mediated signaling in mouse NIH/3T3 cells assessed as inhibition of fibrosis markers by measuring reduction in LPA-induced COL1A2-hn mRNA expression by qRT-PCR assay relative to perfenidone; type: cell-based
[4] = Inhibition of Rho/MRTF/SRF mediated signaling (unknown origin) assessed as reduction in MRTF/SRF-regulated gene transcription by SRE-luciferase expression based assay; parameters: species or system Homo sapiens
[5] = Inhibition of Rho/MRTF/SRF mediated signaling (unknown origin) assessed as reduction in MRTF/SRF-regulated gene transcription by SRE-luciferase expression based assay relative to control; parameters: species or system Homo sapiens

Row | Structure (SMILES) | pIC50 [4] | other results
1 | O=C(Nc1ccc(Cl)cc1)C1CCCN(C(=O)c2cccc(-c3ccco3)c2)C1 (stereo unspecified) |  | Activity (Mus musculus [1]): Active; fold change (FC) (Mus musculus [2]): 100; fold change (FC) (Homo sapiens): 100; fold change (FC) (Mus musculus [3]): 100
2 | CC(ONC(=O)c1cc(C(F)(F)F)cc(C(F)(F)F)c1)C(=O)Nc1ccc(Cl)cc1 (stereo unspecified) |  | pIC50 [5]: 6.00
3 | COc1cccc(-c2nnc(SCCC(=O)O)o2)c1 | 5.44 | 
4 | O=C(O)CCSc1nnc(-c2ccccc2)o1 | 5.46 | 
5 | O=C(O)CCSc1nnc(-c2ccc(Cl)cc2)o1 | 6.47 | 
6 | COc1ccc(-c2nnc(SCCC(=O)O)o2)cc1 | 6.80 | 

More lines, main results first:

Row | pIC50 [4] | Structure (SMILES) | other results
7 | 8.59 | COc1ccc(-c2nnc(SCCC(=O)O)o2)c(Cl)c1 | 
8 | 8.59 | CCOC(=O)CCSc1nnc(-c2ccc(Cl)cc2Cl)o1 | 
9 | 8.82 | Cc1ccc(-c2nnc(SCCC(=O)O)o2)c(Cl)c1 | 
10 | 7.47 | Cc1ccc(-c2nnc(SCCC(=O)O)o2)cc1 | 
11 | 8.74 | O=C(O)CCCSc1nnc(-c2ccc(Cl)cc2Cl)o1 | 
12 | 5.82 | O=C(O)CCSc1nnc(-c2cccc(Cl)c2)o1 | 
13 | 6.74 | Cc1cccc(-c2nnc(SCCC(=O)O)o2)c1 | 
